Experimental findings from article PMC13534789, “Molecular Glue Degraders Enhance CAPRIN1‐Dependent Lysosomal Degradation of APP and Reduce Amyloid β in Alzheimer's Disease” (Advanced Science, 2026) are described below.

The subject of one data set is Aβ42. The experiment in a line: Aβ42 ELISA of conditioned media, HEK-APP695WT cells. Type of data set: cell-based, human. Conditions: 72 h. The method, then:
iPSC‐Ns or HEK‐APP695WT were treated with drugs, and secreted Aβ42 peptides inculture soup were quantified using the Human Amyloid β1‐42 human ELISA kit (Thermo Fisher) according to the manufacturer's protocol. Mouse brain extraction was performed as previously described, with minor modifications. Mouse brain tissues were homogenized at a 1:10 weight‐to‐volume ratio in Tris‐buffered saline (TBS; 50 mM Tris, pH 7.4, 150 mM NaCl) supplemented with 2 mM EDTA and protease inhibitors. TBS‐homogenized brains were centrifuged for 1 h at 16 000 g. To extract total Aβ, including insoluble fractions, formic acid was added to a final concentration of 70%, and the samples were thoroughly mixed by pipetting. […] Prior to quantification, formic acid‐containing samples were neutralized with 1 M Tris base (pH 11). Aβ40 and Aβ42 levels were measured using human‐specific ELISA kits (Invitrogen) and normalized to total protein concentrations determined by the BCA assay (Thermo Scientific). For Aβ quantification in 3D organoids, 3D organoids’ processing and ELISA analysis were performed with minor modifications from previously described protocols. […] Aβ42 levels in both fractions were measured using human‐specific ELISA kits (Thermo Fisher) according to the manufacturer's instructions. […] Aβ levels were normalized to total protein concentration determined by BCA assay.
In general terms: An ELISA detects its analyte on a solid surface through an enzyme-linked reagent.

In another data set the test system is HEK‐APP695WT cells. The experiment in a line: CellTiter-Glo cell viability, HEK cells. To be noted: 10 µM, 72 h. Type of data set: cell-based, human. On the technique in general: In ATP-based viability assays light output follows the ATP content of the culture.
The next data set has as its system APP mRNA. The experiment in a line: qRT-PCR of APP mRNA. Type of data set: cell-based, human. Conditions: 72 h. The procedure: Total RNA was isolated using the RNeasy kit (Qiagen), followed by synthesis for cDNA with a reverse transcription reaction (Quantitect Reverse Transcription kit). The sequences for APP and GAPDH are in Table S1. Quantitative PCR was performed on QuantStudio 6 Flex (Applied Biosystems). The expression levels of APP were normalized to the GAPDH mRNA levels and represented relative to the expression in control cells. The results were analyzed with the delta‐delta‐Ct methods. Ct values were calculated using QuantStudio Design & Analysis Software, and relative expression levels were analyzed with GraphPad Prism.

Data set [1] relates to CAPRIN1, G3BP1, BACE1, ADAM10, PSEN1, nicastrin, GGA1, Sorla, neprilysin. Kind of data set: Western blot of CAPRIN1, G3BP1 and other AD-related proteins. Type of data set: cell-based, human. To be noted: 10 µM.
The subject of the next data set is iPSC‐Ns. The experiment in a line: Cell viability / cytotoxicity of iPSC-derived neurons. Type of data set: cell-based, human. Conditions: AG27606-Ns, 10 µM, 72 h. The procedure:
Cytotoxicity test was conducted using Neutral Red Uptake assay. In brief, iPSC‐Ns seeded in 96 well plates (1 × 10^5 cells/well) were treated dose‐dependently for 5 days. Cells were washed with PBS containing CaCl2 and MgCl2 followed by the addition of Neutral red solution (40 µg/mL in PBS, Sigma–Aldrich) and incubation at 37°C for 3 h. Cells were then washed with PBS containing CaCl2 and MgCl2 two times and de‐stained using with Neutral red de‐staining solution on a plate shaker for 30 min, followed by reading at 540 nm with a Microplate reader. Cell viability was determined using the CellTiter‐Glo Luminescent Cell Viability Assay (Promega) following the manufacturer's instructions. […]

Another data set deals with 5xFAD transgenic mice. Kind of data set: Amyloid pathology in 5xFAD mice (IHC, Thioflavin S, ELISA). Type of data set: in vivo, mouse. An excerpt: Female 5xFAD transgenic mice (9–10 weeks old) were used to evaluate the efficacy of 0152 in reducing amyloid pathology. Mice were housed under Indiana University standard laboratory conditions. For intraperitoneal (IP) administration, mice received either vehicle or 0152 (indicated concentrations) in a formulation consisting of 20% DMSO, 20% Cremophor EL, and 60% PBS. For oral (PO) administration, mice received either vehicle or 0152 (indicated concentrations) in a formulation consisting of 10% NMP (N‐methyl‐2‐pyrrolidone), 10% PG (Propylene Glycol), 5% Solutol HS‐15, and 75% Captisol (10% w/v in RO water). At the end of the treatment period, mice were sacrificed, and their brains were collected for histological analysis. Brain tissues were fixed in 10% Formalin, embedded in paraffin, and sectioned. Thioflavin S staining was performed to visualize β‐sheet‐rich amyloid plaques, and immunohistochemistry was conducted using the 6E10 monoclonal antibody to detect Aβ plagues. Body weights were recorded daily throughout the study.
iPSC‐Ns or HEK‐APP695WT were treated with drugs, and secreted Aβ42 peptides inculture soup were quantified using the Human Amyloid β1‐42 human ELISA kit (Thermo Fisher) according to the manufacturer's protocol. Mouse brain extraction was performed as previously described, with minor modifications. Mouse brain tissues were homogenized at a 1:10 weight‐to‐volume ratio in Tris‐buffered saline (TBS; 50 mM Tris, pH 7.4, 150 mM NaCl) supplemented with 2 mM EDTA and protease inhibitors. TBS‐homogenized brains were centrifuged for 1 h at 16 000 g. To extract total Aβ, including insoluble fractions, formic acid was added to a final concentration of 70%, and the samples were thoroughly mixed by pipetting. Homogenates were centrifuged at 100 000 g for 1 h at 4°C, and the resulting supernatants were collected. Prior to quantification, formic acid‐containing samples were neutralized with 1 M Tris base (pH 11). Aβ40 and Aβ42 levels were measured using human‐specific ELISA kits (Invitrogen) and normalized to total protein concentrations determined by the BCA assay (Thermo Scientific). For Aβ quantification in 3D organoids, 3D organoids’ processing and ELISA analysis were performed with minor modifications from previously described protocols. Briefly, cerebral organoids were lysed in RIPA buffer supplemented with protease and phosphatase inhibitor cocktails (Sigma), followed by sonication and incubation on ice for 60 min. Lysates were centrifuged at 13 000 rpm for 1 h at 4°C, and the supernatants were collected as the RIPA‐soluble fraction. The remaining pellets were resuspended in 70% formic acid, sonicated, and subsequently neutralized with Tris buffer to obtain the formic acid‐solubilized fraction. Aβ42 levels in both fractions were measured using human‐specific ELISA kits (Thermo Fisher) according to the manufacturer's instructions. Formic acid extracts were appropriately neutralized prior to ELISA. Aβ levels were normalized to total protein concentration determined by BCA assay.
Autopsy samples of brain tissues were provided, and immunohistochemistry was performed in the Department of Pathology and Laboratory Medicine, Indiana University School of Medicine, following the institutional protocols. Paraffin‐embedded 3D organoids and human AD patient brain samples were subjected to Hematoxylin and Eosin (H&E), synapses, GFAP, CAPRIN1 (polyclonal Rabbit anti‐CAPRIN1, 15112‐1‐AP, Proteintech), APP (monoclonal mouse anti‐APP/Aβ (6E10), 803001, Biolegend; MAB348, Millipore Sigma) in a Dako automated instrument using the Dako Flex detection system. The primary antibodies and secondary antibodies were used in colocalization experiments with human AD brain biopsy samples, then imaged using a confocal microscope system. Thioflavin‐S was stained with deparaffinization and rehydration of mouse brain sections using a series of xylene and ethanol washes. […]

The target in a further data set is T1, CAPRIN1 and APP (Homo sapiens, UniProt P05067+Q14444).
T1 construct: endogenous in cells; host or cells: AG27606-Ns, sAD2.3-Ns (iPSC-derived neurons) and their lysates
The experiment in a line: Streptavidin pull-down with biotinylated 0152 in AG27606-N lysates. Type of data set: binding.

Setting [2] is: 80 mg/kg IP twice per day, 30 days.

For the molecule `N#Cc1cccc(NC(=O)Nc2nc3ccc(C(=O)N4CCOCC4)cc3s2)c1` [compound 0043], the “Aβ42 in conditioned media” value with Aβ42 (10 µM) is given as “most potent in reducing Aβ42”. In addition, in the data set on Aβ42 (increasing concentrations), the “Extracellular Aβ42 (ELISA)” value is “reduced intracellular APP and extracellular Aβ42 levels in a dose‐dependent manner”. Further, in the data set on HEK‐APP695WT cells, the “Cell viability (CellTiter-Glo)” value is recorded as “without inducing cytotoxicity”. For the same molecule, the “APP mRNA expression (qRT-PCR)” value in the data set on APP mRNA (AD iPSC-Ns) is “nor did it alter APP mRNA expression”. Also, in the data set with APP mRNA (HEK-APP695WT cells), the “APP mRNA (qRT-PCR)” value is on record as “no significant changes”. The “CAPRIN1 and G3BP1 protein levels” value in data set [1] (HEK-APP695WT cells, 12–72 h) is reported as “no effect”. For the same molecule, the “Levels of other AD-related proteins (BACE1, ADAM10, PSEN1, nicastrin, GGA1, Sorla, neprilysin)” value in data set [1] (SAD2.3-Ns, 72 h) is on record as “did not affect levels”.

For the molecule `COc1cccc(NC(=O)Nc2nc3ccc(C(=O)N4CCOCC4)cc3s2)c1` [compound 0152], the “Neuronal toxicity (CellTiter-Glo)” value with iPSC‐Ns is on record as “without neuronal toxicity”. Besides, in the data set on 5xFAD transgenic mice (setting [2]), the “APP/Aβ-positive areas and plaque sizes in subiculum and hippocampus, plaque sizes in cortex (IHC)” value is recorded as “significantly reduced”; the “Fibrillar Aβ plaques in subiculum (Thioflavin S)” value is given as “drastically reduced fibrillar Aβ plaques”. The “APP/Aβ-positive areas and plaque sizes in subiculum (IHC, Thioflavin S)” value in the data set with 5xFAD transgenic mice (80 mg/kg oral gavage twice daily, 30 days) is given as “significant reduction”. Besides, in the data set with 5xFAD transgenic mice (100 mg/kg IP daily, 24 days), the “APP/Aβ-positive area and amyloid plaque size, hippocampus and subiculum (IHC)” value was “significant reductions”; the “Aβ40 and Aβ42 levels in hemispheric brain lysates (ELISA)” value is “marked decreases”; the “Fibrillar Aβ plaques in subiculum (Thioflavin S)” value is listed as “reduced fibrillar Aβ plaques”; the “Plaque burden in cortex (IHC)” value is listed as “minimal changes”. In addition, on CAPRIN1 and APP, the “Competition of the 0152-biotin pull-down by excess free compound” value is recorded as “competitively inhibited”.
